# From patent publication US12486489B2, “Culture medium for testing drug resistance of H.pylori as well as preparation method and use thereof” (priority 2022, dated 2025)
# Read-outs that look alike come from different tables or passages of the source.
# Columns and labels:
# [1] = test system: clinical H. pylori strain; assay: MIC of clinical H. pylori strains by micro dilution method; assay type: cell-based; conditions: Helicobacter pylori, 72 h
# Description: The characteristic culture media (A, B, C, D, E) are cultivated at a constant temperature of 37° C. for 36 hours in a three gas incubator. The characteristic culture media are removed and placed in a natural environment for 30 minutes to observe whether there are discolorations at the point of the culture medium where the specimen is dropped in. […] Another 100 μL of the specimen is taken and coated on Columbia solid culture medium and cultivated in a three gas incubator at a constant temperature of 37° C. for 3 days to 5 days. The number of colonies on the plate is counted to determine the initial inoculation amount. The micro dilution method is adopted to test the MIC of clinical specimen H. pylori, the test is meaningful only when there is no bacterial growth in the negative control well without bacteria and there is bacterial growth in the positive well with bacteria but without antibiotics.
# H. pylori single colony grown on Colombian culture medium is taken (which is confirmed as H. pylori by urease, oxidase, catalase, and PCR testing of CagA gene, as illustrated in FIG. 13) and the bacteria are increased. During the preparation of MIC plates and bacterial solution, H. pylori with logarithmic growth phase is taken to prepare a bacterial suspension by using BHI. The concentration OD600 is adjusted to 0.3 (1×10^8 CFU/mL, diluted 10 times, 10 μL is taken and added to wells 1-8 (with a bacterial solution concentration of approximately 1.0×10^6 CFU/mL per well, cultivated for 72 hours to determine the results.
# H. pylori = assay: MIC of laboratory H. pylori strains by micro dilution method; assay type: cell-based; conditions: Helicobacter pylori
# Description: (3) Preparation of bacterial solution: H. pylori grown in logarithmic phase on a solid plate is taken, BHI culture medium is used to prepare a bacterial suspension. The concentration of the bacterial solution is adjusted to 1×10^8 CFU/mL (OD600 is 0.3), diluted 10 times, 100 times, and 1000 times to implement a final concentration of […], for the subsequent use.
# (4) Inoculation of bacterial solution: 10 μL of the above bacterial solution for the subsequent use is taken and added to wells the 1-10-th and the 12-th well (bacterial working concentration is 1×10^6 CFU/mL), the 11-th well serves as a non-bacterial control and only sterile water is added. The wells are cultivated for 72 hours to determine the results.
# [2] = clinical strain FY-31, approximately 1.0×10^6 CFU/mL per well, 72 hours, read-out: MIC
# [3] = clinical strain FY-43, approximately 1.0×10^6 CFU/mL per well, 72 hours, read-out: MIC
# [4] = clinical strain FY-47, approximately 1.0×10^6 CFU/mL per well, 72 hours, read-out: MIC
# [5] = clinical strain FY-52, approximately 1.0×10^6 CFU/mL per well, 72 hours, read-out: MIC
# [6] = read-out: MICs, standard sensitive strains G27 and 26695, bacterial count 1×10^6 CFU/mL
# [7] = read-out: minimum inhibitory concentration (MIC), strain 159, bacterial count 10^6 CFU/mL (first line of the strain)
# [8] = read-out: minimum inhibitory concentration (MIC), strain 159, bacterial count 10^6 CFU/mL (second line of the strain)
# [9] = read-out: minimum inhibitory concentration (MIC), strain 161, bacterial count 10^4 CFU/mL
# [10] = read-out: minimum inhibitory concentration (MIC), strain 161, bacterial count 10^6 CFU/mL (first line of the strain)
# [11] = read-out: minimum inhibitory concentration (MIC), strain 161, bacterial count 10^6 CFU/mL (second line of the strain)
# [12] = read-out: minimum inhibitory concentration (MIC), strain 162, bacterial count 10^6 CFU/mL (first line of the strain)
# [13] = read-out: minimum inhibitory concentration (MIC), strain 162, bacterial count 10^6 CFU/mL (second line of the strain)
# [14] = read-out: minimum inhibitory concentration (MIC), strain 163, bacterial count 10^4 CFU/mL
# [15] = read-out: minimum inhibitory concentration (MIC), strain 163, bacterial count 10^6 CFU/mL (first line of the strain)
# [16] = read-out: minimum inhibitory concentration (MIC), strain 163, bacterial count 10^6 CFU/mL (second line of the strain)
# [17] = read-out: minimum inhibitory concentration (MIC), strain 286, bacterial count 10^4 CFU/mL
# [18] = read-out: minimum inhibitory concentration (MIC), strain 286, bacterial count 10^6 CFU/mL (first line of the strain)
# [19] = read-out: minimum inhibitory concentration (MIC), strain 286, bacterial count 10^6 CFU/mL (second line of the strain)
# [20] = read-out: minimum inhibitory concentration (MIC), strain 287, bacterial count 10^4 CFU/mL
# [21] = read-out: minimum inhibitory concentration (MIC), strain 287, bacterial count 10^6 CFU/mL (first line of the strain)
# [22] = read-out: minimum inhibitory concentration (MIC), strain 287, bacterial count 10^6 CFU/mL (second line of the strain)
# [23] = read-out: minimum inhibitory concentration (MIC), strain 289, bacterial count 10^4 CFU/mL
# [24] = read-out: minimum inhibitory concentration (MIC), strain 289, bacterial count 10^6 CFU/mL (first line of the strain)
# [25] = read-out: minimum inhibitory concentration (MIC), strain 289, bacterial count 10^6 CFU/mL (second line of the strain)
# [26] = read-out: minimum inhibitory concentration (MIC), strain 290, bacterial count 10^4 CFU/mL
# [27] = read-out: minimum inhibitory concentration (MIC), strain 290, bacterial count 10^6 CFU/mL (first line of the strain)
# [28] = read-out: minimum inhibitory concentration (MIC), strain 290, bacterial count 10^6 CFU/mL (second line of the strain)
# [29] = read-out: minimum inhibitory concentration (MIC), strain 26695, bacterial count 10^6 CFU/mL (second line of the strain)
# [30] = resistant strains 159, 161, 162, 163, 286, 287, 289, and 290, bacterial count 1×10^6 CFU/mL, read-out: MICs
# [31] = strain G27, bacterial count 10^4 CFU/mL, read-out: minimum inhibitory concentration (MIC)
# [32] = strain G27, bacterial count 10^6 CFU/mL (first line of the strain), read-out: minimum inhibitory concentration (MIC)
# [33] = strain G27, bacterial count 10^6 CFU/mL (second line of the strain), read-out: minimum inhibitory concentration (MIC)
# [34] = read-out: minimum inhibitory concentration (MIC), strain 159, bacterial count 10^4 CFU/mL
# [35] = read-out: minimum inhibitory concentration (MIC), strain 162, bacterial count 10^4 CFU/mL
Structure (SMILES),"MIC [1, 2] [µg/mL]","MIC [1, 4] [µg/mL]","MIC [1, 5] [µg/mL]",MIC (H. pylori; [10]) [µg/mL],MIC (H. pylori; [12]) [µg/mL],MIC (H. pylori; [15]) [µg/mL],MIC (H. pylori; [16]) [µg/mL],MIC (H. pylori; [17]) [µg/mL],MIC (H. pylori; [18]) [µg/mL],MIC (H. pylori; [19]) [µg/mL],MIC (H. pylori; [21]) [µg/mL],MIC (H. pylori; [22]) [µg/mL],MIC (H. pylori; [23]) [µg/mL],MIC (H. pylori; [24]) [µg/mL],MIC (H. pylori; [25]) [µg/mL],MIC (H. pylori; [26]) [µg/mL],MIC (H. pylori; [27]) [µg/mL],MIC (H. pylori; [28]) [µg/mL],MIC (H. pylori; [31]) [µg/mL],MIC (H. pylori; [32]) [µg/mL],also measured
"Cc1ncc([N+](=O)[O-])n1CCO [Metronidazole, metronidazole]",1,16,1,4,2,16,4,4,32,16,32,16,8,32,16,4,32,16,0.125,0.5,"MIC [1, 3]: 0.5 µg/mL; MIC (H. pylori; [6]): 0.25 µg/mL; MIC (H. pylori; [7]): 4 µg/mL; MIC (H. pylori; [8]): 2 µg/mL; MIC (H. pylori; [9]): 1 µg/mL; MIC (H. pylori; [11]): 2 µg/mL; MIC (H. pylori; [13]): 1 µg/mL; MIC (H. pylori; [14]): 2 µg/mL; MIC (H. pylori; [20]): 8 µg/mL; MIC (H. pylori; [29]): 0.25 µg/mL; MIC (H. pylori; [30]): 1 to 16 µg/mL; MIC (H. pylori; [33]): 0.5 µg/mL"
"CC[C@H]1OC(=O)[C@H](C)[C@@H](O[C@H]2C[C@@](C)(OC)[C@@H](O)[C@H](C)O2)[C@H](C)[C@@H](O[C@@H]2O[C@H](C)C[C@H](N(C)C)[C@H]2O)[C@](C)(OC)C[C@@H](C)C(=O)[C@H](C)[C@@H](O)[C@]1(C)O [Clarithromycin, clarithromycin]",0.0625,0.0625,0.25,2,8,0.5,0.25,1,8,4,4,2,2,32,8,4,16,4,0.0156,0.0625,"MIC [1]: 0.125 µg/mL; MIC (H. pylori; [6]): 0.0312 to 0.0625 µg/mL; MIC (H. pylori; [34]): 0.0312 µg/mL; MIC (H. pylori; [9]): 0.5 µg/mL; MIC (H. pylori; [11]): 1 µg/mL; MIC (H. pylori; [35]): 1 µg/mL; MIC (H. pylori; [13]): 4 µg/mL; MIC (H. pylori; [20]): 8 µg/mL; MIC (H. pylori; [30]): 0.0625 to 8 µg/mL; MIC (H. pylori; strain 159, bacterial count 10^6 CFU/mL (first line of the strain), read-out: minimum inhibitory concentration (MIC)): 0.125 µg/mL; MIC (H. pylori; strain 159, bacterial count 10^6 CFU/mL (second line of the strain), read-out: minimum inhibitory concentration (MIC)): 0.0625 µg/mL; MIC (H. pylori; strain 163, bacterial count 10^4 CFU/mL, read-out: minimum inhibitory concentration (MIC)): 0.125 µg/mL; MIC (H. pylori; strain 26695, bacterial count 10^6 CFU/mL (first line of the strain), read-out: minimum inhibitory concentration (MIC)): 0.125 µg/mL; MIC (H. pylori; strain 26695, bacterial count 10^6 CFU/mL (second line of the strain), read-out: minimum inhibitory concentration (MIC)): 0.0625 µg/mL; MIC (H. pylori; [33]): 0.0312 µg/mL"
"CC1(C)S[C@@H]2[C@H](NC(=O)[C@H](N)c3ccc(O)cc3)C(=O)N2[C@H]1C(=O)O [Amoxicillin, amoxicillin]",0.0312,0.0312,< 0.0312,0.125,0.125,1,0.5,0.5,1,0.5,0.25,0.125,0.125,1,0.5,1,4,2,0.00781,0.0312,"MIC [1, 3]: 0.0312 µg/mL; MIC (H. pylori; [6]): 0.0156 to 0.0325 µg/mL; MIC (H. pylori; [7]): 0.125 µg/mL; MIC (H. pylori; [14]): 0.25 µg/mL; MIC (H. pylori; read-out: minimum inhibitory concentration (MIC), strain 26695, bacterial count 10^4 CFU/mL): 0.0325 µg/mL; MIC (H. pylori; [29]): 0.0325 µg/mL; MIC (H. pylori; [33]): 0.0156 µg/mL"
"C[C@H]1COc2c(N3CCN(C)CC3)c(F)cc3c(=O)c(C(=O)O)cn1c23 [Levofloxacin, levofloxacin]",16,0.5,0.25,2,8,16,4,0.5,1,0.5,4,2,2,8,4,16,32,32,0.0312,0.125,"MIC [1, 3]: 1 µg/mL; MIC (H. pylori; [34]): 0.5 µg/mL; MIC (H. pylori; [7]): 2 µg/mL; MIC (H. pylori; [8]): 1 µg/mL; MIC (H. pylori; [9]): 1 µg/mL; MIC (H. pylori; [11]): 2 µg/mL; MIC (H. pylori; [35]): 2 µg/mL; MIC (H. pylori; [13]): 4 µg/mL; MIC (H. pylori; [14]): 2 µg/mL; MIC (H. pylori; [20]): 1 µg/mL; MIC (H. pylori; [30]): 0.5 to 32 µg/mL; MIC (H. pylori; [33]): 0.0625 µg/mL"
